Measured values reported in patent US10259810B2, “N-sulfonylated pyrazolo[3,4-b]pyridin-6-carboxamides and method of use” (AbbVie S.à.r.l., priority 2015, dated 2019).

Assays:
ΔF508-CFTR [1] = target: T1, ΔF508-CFTR (Homo sapiens, UniProt P13569, DEL508-508); assay: CFTR cell surface levels using HRP-tagged ΔF508-CFTR expressing CFBE cells, intrinsic corrector capacity; format: cell-based; parameters: % Activation: concentration or dose not given beside the values; conditions: HRP-tagged ΔF508-CFTR expressing CFBE41o- cells, compound alone (intrinsic corrector capacity), 20 hours at 33° C.; for EC50: read-out: EC50
T1 construct: host or cells: CFBE41o-, doxycycline-inducible
Method in brief: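 Read-out: chemiluminescent HRP activity of ECL4-HRP-tagged ΔF508-CFTR at the cell surface, 15 min substrate in dark. Normalized as 100×(sample−DMSO)/(positive control−DMSO).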

ΔF508-CFTR [2] = target: T1, ΔF508-CFTR; assay: CFTR cell surface levels using HRP-tagged ΔF508-CFTR expressing CFBE cells, in the presence of a co-corrector; format: cell-based; conditions: HRP-tagged ΔF508-CFTR CFBE cells, in the presence of 3 μM co-corrector; for EC50: read-out: EC50
Method in brief: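 Chemiluminescent read-out of surface HRP (15 min, dark) after PBS washes. Activity is normalized as 100×(sample−DMSO)/(3 μM co-corrector alone−DMSO).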

T1 sequence (P13569 with tags, fused parts or gaps DEL508-508): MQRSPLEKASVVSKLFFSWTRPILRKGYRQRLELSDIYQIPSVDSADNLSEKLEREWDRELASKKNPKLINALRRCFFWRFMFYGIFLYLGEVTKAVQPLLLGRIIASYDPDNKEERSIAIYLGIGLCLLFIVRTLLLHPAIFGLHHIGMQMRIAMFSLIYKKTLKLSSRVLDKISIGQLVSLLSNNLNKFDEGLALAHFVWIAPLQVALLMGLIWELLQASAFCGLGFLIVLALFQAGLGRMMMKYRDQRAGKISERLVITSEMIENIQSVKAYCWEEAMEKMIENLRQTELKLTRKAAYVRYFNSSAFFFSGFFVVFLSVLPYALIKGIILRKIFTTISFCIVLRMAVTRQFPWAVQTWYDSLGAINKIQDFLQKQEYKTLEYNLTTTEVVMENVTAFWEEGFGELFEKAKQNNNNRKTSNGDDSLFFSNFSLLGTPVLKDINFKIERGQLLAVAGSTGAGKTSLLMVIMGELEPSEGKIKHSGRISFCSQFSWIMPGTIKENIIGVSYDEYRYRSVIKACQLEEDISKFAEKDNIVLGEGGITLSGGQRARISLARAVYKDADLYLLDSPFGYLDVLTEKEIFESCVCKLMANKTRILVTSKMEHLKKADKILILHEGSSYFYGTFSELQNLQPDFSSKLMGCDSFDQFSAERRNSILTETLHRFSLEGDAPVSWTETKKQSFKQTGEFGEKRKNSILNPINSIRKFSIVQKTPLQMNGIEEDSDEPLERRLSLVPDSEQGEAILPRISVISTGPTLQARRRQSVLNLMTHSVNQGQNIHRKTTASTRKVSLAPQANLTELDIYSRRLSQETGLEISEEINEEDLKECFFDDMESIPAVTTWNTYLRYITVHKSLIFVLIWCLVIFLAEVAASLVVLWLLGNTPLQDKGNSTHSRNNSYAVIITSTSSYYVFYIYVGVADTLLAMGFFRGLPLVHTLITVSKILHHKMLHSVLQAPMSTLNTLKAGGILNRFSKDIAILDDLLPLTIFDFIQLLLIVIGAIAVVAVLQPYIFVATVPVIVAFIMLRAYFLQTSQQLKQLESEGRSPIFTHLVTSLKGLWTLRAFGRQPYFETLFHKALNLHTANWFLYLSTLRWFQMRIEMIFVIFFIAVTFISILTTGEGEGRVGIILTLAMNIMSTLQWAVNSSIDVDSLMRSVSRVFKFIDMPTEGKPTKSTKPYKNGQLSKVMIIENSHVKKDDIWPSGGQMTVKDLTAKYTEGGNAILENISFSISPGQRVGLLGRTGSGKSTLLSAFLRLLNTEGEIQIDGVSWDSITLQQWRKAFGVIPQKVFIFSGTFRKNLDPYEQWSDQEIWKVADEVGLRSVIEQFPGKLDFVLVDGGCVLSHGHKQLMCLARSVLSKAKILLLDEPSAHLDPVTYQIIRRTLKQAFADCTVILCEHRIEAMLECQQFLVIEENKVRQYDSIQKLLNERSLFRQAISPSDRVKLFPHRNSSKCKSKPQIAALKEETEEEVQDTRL

Row | SMILES | % Activation (ΔF508-CFTR [1]) | EC50 (ΔF508-CFTR [1]) | % Activation (ΔF508-CFTR [2]) | EC50 (ΔF508-CFTR [2])
1 | Cc1nn(-c2ccccc2)c2nc(C(=O)NS(=O)(=O)C3CC3)cc(-c3ccc(N4CCOCC4)cc3)c12 [Compound 4, N-(cyclopropanesulfonyl)-3-methyl-4-[4-(morpholin-4-yl)phenyl]-1-phenyl-1H-pyrazolo[3,4-b]pyridine-6-carboxamide] | 246.7% | 838 nM | 405.8% | 298 nM
2 | COCCS(=O)(=O)NC(=O)c1cc(-c2ccc(OC)cc2)c2c(C)nn(CC(C)C)c2n1 [Compound 231, N-(2-methoxyethanesulfonyl)-4-(4-methoxyphenyl)-3-methyl-1-(2-methylpropyl)-1H-pyrazolo[3,4-b]pyridine-6-carboxamide] | 162.9% | 939 nM | 329.9% | 518 nM
3 | COCC1CCN(c2cc(C(=O)NS(=O)(=O)CC(=O)OC)nc3c2c(C2CCC2)nn3-c2ccccc2)CC1 [Compound 376, methyl ({3-cyclobutyl-4-[4-(methoxymethyl)piperidin-1-yl]-1-phenyl-1H-pyrazolo[3,4-b]pyridine-6-carbonyl}sulfamoyl)acetate] | 355.7% | 117 nM | 496.8% | 51.6 nM
4 | COCC1CCN(S(=O)(=O)NC(=O)c2cc(N3CCC(N4CCOCC4)CC3)c3c(C4CCC4)nn(-c4ccc(F)cc4)c3n2)CC1 [Compound 540, 3-cyclobutyl-1-(4-fluorophenyl)-N-[4-(methoxymethyl)piperidine-1-sulfonyl]-4-[4-(morpholin-4-yl)piperidin-1-yl]-1H-pyrazolo[3,4-b]pyridine-6-carboxamide] | 248.8% | 123 nM | 443.3% | 103 nM
5 | Cc1nn(-c2cccc(Cl)c2)c2nc(C(=O)NS(C)(=O)=O)cc(-c3ccc(N4CCOCC4)cc3)c12 [Compound 65, 1-(3-chlorophenyl)-N-(methanesulfonyl)-3-methyl-4-[4-(morpholin-4-yl)phenyl]-1H-pyrazolo[3,4-b]pyridine-6-carboxamide] | 162.33% | 1530 nM | 332.05% | 464 nM
6 | CS(=O)(=O)NC(=O)c1cc(N2CCC3(CCCCC3)CC2)c2c(C3CCC3)nn(-c3ccccc3)c2n1 [Compound 222, 4-(3-azaspiro[5.5]undecan-3-yl)-3-cyclobutyl-N-(methanesulfonyl)-1-phenyl-1H-pyrazolo[3,4-b]pyridine-6-carboxamide] | 65.685% | 1420 nM | 247.3% | 1790 nM
7 | CS(=O)(=O)NC(=O)c1cc(C2CCN(CCC(F)(F)F)CC2)c2c(C3CCC3)nn(-c3ccc(F)cc3)c2n1 [Compound 603, 3-cyclobutyl-1-(4-fluorophenyl)-N-(methanesulfonyl)-4-[1-(3,3,3-trifluoropropyl)piperidin-4-yl]-1H-pyrazolo[3,4-b]pyridine-6-carboxamide] | 136.2% | 283 nM | 344.65% | 156 nM
8 | COC1CN(c2cccc(-n3nc(C(C)C)c4c(-c5ccc(N6CCOCC6)cc5)cc(C(=O)NS(C)(=O)=O)nc43)c2)C1 [Compound 36, N-(methanesulfonyl)-1-[3-(3-methoxyazetidin-1-yl)phenyl]-4-[4-(morpholin-4-yl)phenyl]-3-(propan-2-yl)-1H-pyrazolo[3,4-b]pyridine-6-carboxamide] | 384.57% | 416 nM | 572.93% | 246 nM
9 | CCS(=O)(=O)NC(=O)c1cc(N2CCCCC2)c2c(C(C)C)nn(-c3cccc(C)c3)c2n1 [Compound 102, N-(ethanesulfonyl)-1-(3-methylphenyl)-4-(piperidin-1-yl)-3-(propan-2-yl)-1H-pyrazolo[3,4-b]pyridine-6-carboxamide] | 233.9% | 897 nM | 458.75% | 537 nM
10 | CNS(=O)(=O)NC(=O)c1cc(N2CCC(COC)CC2)c2c(C3CCC3)nn(-c3ccc(F)cc3)c2n1 [Compound 669, 3-cyclobutyl-1-(4-fluorophenyl)-4-[4-(methoxymethyl)piperidin-1-yl]-N-(methylsulfamoyl)-1H-pyrazolo[3,4-b]pyridine-6-carboxamide] | 334.9% | 211 nM | 394% | 244 nM
11 | O=C(NS(=O)(=O)N1CCC(N2CCCC2)CC1)c1cc(OCC2CCOCC2)c2c(C3CCC3)nn(-c3ccccc3)c2n1 [Compound 351, 3-cyclobutyl-4-[(oxan-4-yl)methoxy]-1-phenyl-N-[4-(pyrrolidin-1-yl)piperidine-1-sulfonyl]-1H-pyrazolo[3,4-b]pyridine-6-carboxamide] | 50.87% | 73.5 nM | 232.5% | 81.1 nM
12 | CN(C(=O)c1cc(N2CCC(CN3CCCC3)CC2)c2c(C3CCC3)nn(-c3ccccc3)c2n1)S(C)(=O)=O [Compound 662, 3-cyclobutyl-N-(methanesulfonyl)-N-methyl-1-phenyl-4-{4-[(pyrrolidin-1-yl)methyl]piperidin-1-yl}-1H-pyrazolo[3,4-b]pyridine-6-carboxamide] | 134.35% | 124 nM | 346.65% | 104 nM
13 | CS(=O)(=O)NC(=O)c1cc(OCCCN2CCOCC2)c2c(C3CCC3)nn(-c3ccccc3)c2n1 [Compound 281, 3-cyclobutyl-N-(methanesulfonyl)-4-[3-(morpholin-4-yl)propoxy]-1-phenyl-1H-pyrazolo[3,4-b]pyridine-6-carboxamide] | 230.15% | 457 nM | 398.47% | 242 nM
14 | CC(C)c1nn(-c2cccc(N(C)C)c2)c2nc(C(=O)NS(=O)(=O)CCCN=[N+]=[N-])cc(-c3ccc(N=[N+]=[N-])cc3)c12 [Compound 327, 4-(4-azidophenyl)-N-(3-azidopropane-1-sulfonyl)-1-[3-(dimethylamino)phenyl]-3-(propan-2-yl)-1H-pyrazolo[3,4-b]pyridine-6-carboxamide] | 239.4% | 145 nM | 433.9% | 99.9 nM
15 | COC[C@H]1CCCN1C1CCN(S(=O)(=O)NC(=O)c2cc(N3CCC(CN4CCCC4)CC3)c3c(C4CCC4)nn(-c4ccccc4)c3n2)CC1 [Compound 458, 3-cyclobutyl-N-{4-[(2R)-2-(methoxymethyl)pyrrolidin-1-yl]piperidine-1-sulfonyl}-1-phenyl-4-{4-[(pyrrolidin-1-yl)methyl]piperidin-1-yl}-1H-pyrazolo[3,4-b]pyridine-6-carboxamide] | 124.4% | 794 nM | 282.8% | 920 nM
16 | COCC1CCN(c2cc(C(=O)NS(=O)(=O)c3c(C)noc3C)nc3c2c(C2CCC2)nn3-c2ccccc2)CC1 [Compound 287, 3-cyclobutyl-N-(3,5-dimethyl-1,2-oxazole-4-sulfonyl)-4-[4-(methoxymethyl)piperidin-1-yl]-1-phenyl-1H-pyrazolo[3,4-b]pyridine-6-carboxamide] | 204.9% | 183 nM | 450.9% | 128 nM
17 | CC(=O)NCCS(=O)(=O)NC(=O)c1cc(N2CCC(N3CCOCC3)CC2)c2c(C3CCC3)nn(-c3ccc(F)cc3)c2n1 [Compound 574, N-(2-acetamidoethanesulfonyl)-3-cyclobutyl-1-(4-fluorophenyl)-4-[4-(morpholin-4-yl)piperidin-1-yl]-1H-pyrazolo[3,4-b]pyridine-6-carboxamide] | 129.9% | 2760 nM | 283.3% | 542 nM
18 | COCC1CCN(c2cc(C(=O)NS(=O)(=O)N3CCOCC3)nc3c2c(C2CCC2)nn3-c2ccc(F)cc2)CC1 [Compound 671, 3-cyclobutyl-1-(4-fluorophenyl)-4-[4-(methoxymethyl)piperidin-1-yl]-N-(morpholine-4-sulfonyl)-1H-pyrazolo[3,4-b]pyridine-6-carboxamide] | 252.95% | 274 nM | 346.1% | 107 nM
19 | COCCN(C)C1CCN(c2cc(C(=O)NS(=O)(=O)N(C)C)nc3c2c(C2CCC2)nn3-c2ccc(F)cc2)CC1 [Compound 591, 3-cyclobutyl-N-(dimethylsulfamoyl)-1-(4-fluorophenyl)-4-{4-[(2-methoxyethyl)(methyl)amino]piperidin-1-yl}-1H-pyrazolo[3,4-b]pyridine-6-carboxamide] | 189.1% | 795 nM | 384% | 1590 nM
20 | CS(=O)(=O)NC(=O)c1cc(N2CC3(CCCCO3)C2)c2c(C3CCC3)nn(-c3ccccc3)c2n1 [Compound 203, 3-cyclobutyl-N-(methanesulfonyl)-4-(5-oxa-2-azaspiro[3.5]nonan-2-yl)-1-phenyl-1H-pyrazolo[3,4-b]pyridine-6-carboxamide] | 82.59% | 1020 nM | 224.63% | 328 nM
